In the supplement of paper PMC10627819:

Experiments:
Experiment in all cases: fitness (endpoint OD595 vs no drug) (fraction); higher = more growth
B. subtilis 168 = system: B. subtilis 168
Method in brief: (§1)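 Fitness compares growth at the stationary-phase transition with the robust mean of no-drug control wells, as a ratio of optical densities. The ratio is capped at 1. Wells of 384-well plates held 30 µl, or 55 µl for S. pneumoniae, inoculated at OD595 0.01. Readings at OD595 every 30 min for 14 h at 37 °C were corrected against the first reading.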

S. aureus Newman = system: S. aureus Newman
Method in brief: as §1

S. aureus DSM 20231 = system: S. aureus DSM 20231
Method in brief: as §1

S. pneumoniae D39V = system: S. pneumoniae D39V
Method in brief: as §1
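Also: OD595 on entry to stationary phase over no-drug wells; at most 1.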

CO/N=C(\C(=O)N[C@@H]1C(=O)N2C(C(=O)O)=C(COC(C)=O)CS[C@H]12)c1csc(N)n1 [Cefotaxime] + N[C@@H]1CONC1=O [Cycloserine D]
fitness, B. subtilis 168, one replicate
Details	first compound 0.00775 µg/mL	first compound 0.0155 µg/mL	first compound 0.031 µg/mL	first compound 0.0625 µg/mL	first compound 0.125 µg/mL	first compound 0.25 µg/mL
partner 0.125 µg/mL	0.876	0.666	0.554	0.498	0.353	0.296
partner 0.25 µg/mL	0.888	0.756	0.561	0.524	0.401	0.31
partner 0.5 µg/mL	0.802	0.733	0.566	0.477	0.363	0.267

Details	fitness
B. subtilis 168, first compound 0.5 µg/mL, partner 0.125 µg/mL	0.333
B. subtilis 168, first compound 0.5 µg/mL, partner 0.25 µg/mL	0.28
B. subtilis 168, first compound 1 µg/mL, partner 0.125 µg/mL	0.162
B. subtilis 168, first compound 1 µg/mL, partner 0.25 µg/mL	0.169
B. subtilis 168, first compound 1 µg/mL, partner 0.5 µg/mL	0.162
B. subtilis 168, first compound 2 µg/mL, partner 0.125 µg/mL	0.16
B. subtilis 168, first compound 2 µg/mL, partner 0.25 µg/mL	0.182
B. subtilis 168, first compound 2 µg/mL, partner 0.5 µg/mL	0.15
S. aureus DSM 20231, first compound 0.039 µg/mL, partner 0.375 µg/mL	0.822
S. aureus DSM 20231, first compound 0.039 µg/mL, partner 0.75 µg/mL	0.822
S. aureus DSM 20231, first compound 0.039 µg/mL, partner 1.5 µg/mL	0.835
S. aureus DSM 20231, first compound 0.078 µg/mL, partner 0.375 µg/mL	0.789
S. aureus DSM 20231, first compound 0.078 µg/mL, partner 0.75 µg/mL	0.853
S. aureus DSM 20231, first compound 0.078 µg/mL, partner 1.5 µg/mL	0.748
S. aureus DSM 20231, first compound 0.156 µg/mL, partner 0.375 µg/mL	0.736
S. aureus DSM 20231, first compound 0.156 µg/mL, partner 0.75 µg/mL	0.772
S. aureus DSM 20231, first compound 0.156 µg/mL, partner 1.5 µg/mL	0.696
S. aureus DSM 20231, first compound 0.312 µg/mL, partner 0.375 µg/mL	0.652
S. aureus DSM 20231, first compound 0.312 µg/mL, partner 0.75 µg/mL	0.638
S. aureus DSM 20231, first compound 0.312 µg/mL, partner 1.5 µg/mL	0.584
S. aureus Newman, first compound 0.078 µg/mL, partner 0.375 µg/mL	0.736
S. aureus Newman, first compound 0.078 µg/mL, partner 0.75 µg/mL	0.828
S. aureus Newman, first compound 0.078 µg/mL, partner 1.5 µg/mL	0.785
S. aureus Newman, first compound 0.156 µg/mL, partner 0.375 µg/mL	0.601
S. aureus Newman, first compound 0.156 µg/mL, partner 0.75 µg/mL	0.604
S. aureus Newman, first compound 0.156 µg/mL, partner 1.5 µg/mL	0.629
S. aureus Newman, first compound 0.312 µg/mL, partner 0.375 µg/mL	0.345
S. aureus Newman, first compound 0.312 µg/mL, partner 0.75 µg/mL	0.326
S. aureus Newman, first compound 0.312 µg/mL, partner 1.5 µg/mL	0.305
S. aureus Newman, first compound 0.625 µg/mL, partner 0.375 µg/mL	0.186
S. aureus Newman, first compound 0.625 µg/mL, partner 0.75 µg/mL	0.121
S. aureus Newman, first compound 0.625 µg/mL, partner 1.5 µg/mL	0.0813
S. aureus Newman, first compound 1.25 µg/mL, partner 0.375 µg/mL	0.0332
S. aureus Newman, first compound 1.25 µg/mL, partner 0.75 µg/mL	0.0383
S. aureus Newman, first compound 1.25 µg/mL, partner 1.5 µg/mL	0.0209
S. aureus Newman, first compound 2.5 µg/mL, partner 0.375 µg/mL	0.0595
S. aureus Newman, first compound 2.5 µg/mL, partner 0.75 µg/mL	0.0506
S. aureus Newman, first compound 2.5 µg/mL, partner 1.5 µg/mL	0.0484

C[C@@H]1O[C@@H]1P(=O)(O)O [Fosfomycin] + CO[C@@]12[C@H](COC(N)=O)C3=C(C(=O)C(C)=C(N)C3=O)N1C[C@@H]1N[C@@H]12 [Mitomycin C]
fitness
Details	first compound 0.781 µg/mL	first compound 1.25 µg/mL	first compound 1.562 µg/mL	first compound 2.5 µg/mL	first compound 3.124 µg/mL	first compound 5 µg/mL
S. aureus DSM 20231, partner 0.0156 µg/mL	0.607	–	0.494	–	0.43	–
S. aureus DSM 20231, partner 0.0312 µg/mL	0.57	–	0.497	–	0.318	–
S. aureus DSM 20231, partner 0.0625 µg/mL	0.49	–	0.35	–	0.165	–
S. aureus Newman, partner 0.0156 µg/mL	0.576	–	0.452	–	0.124	–
S. aureus Newman, partner 0.0312 µg/mL	0.543	–	0.363	–	0.0839	–
S. aureus Newman, partner 0.0625 µg/mL	0.373	–	0.114	–	0.0142	–
S. pneumoniae D39V, partner 0.001075 µg/mL	–	0.903	–	0.869	–	0.772
S. pneumoniae D39V, partner 0.002 µg/mL	–	0.858	–	0.812	–	0.694
S. pneumoniae D39V, partner 0.00215 µg/mL	–	0.843	–	0.837	–	0.733
S. pneumoniae D39V, partner 0.004 µg/mL	–	0.793	–	0.77	–	0.617
S. pneumoniae D39V, partner 0.0043 µg/mL	–	0.748	–	0.734	–	0.652
S. pneumoniae D39V, partner 0.008 µg/mL	–	0.65	–	0.648	–	0.574

CN(C)[C@@H]1C(O)=C(C(N)=O)C(=O)[C@@]2(O)C(O)=C3C(=O)c4c(O)ccc(Cl)c4[C@@](C)(O)[C@H]3C[C@@H]12 [Chlortetracycline] + COc1cccc2c1C(=O)c1c(O)c3c(c(O)c1C2=O)C[C@@](O)(C(=O)CO)C[C@@H]3O[C@H]1C[C@H](N)[C@H](O)[C@H](C)O1 [Doxorubicin]
Details	fitness
B. subtilis 168, first compound 0.0475 µg/mL, partner 0.625 µg/mL	0.895
B. subtilis 168, first compound 0.0475 µg/mL, partner 1.25 µg/mL	0.845
B. subtilis 168, first compound 0.0475 µg/mL, partner 2.5 µg/mL	0.717
B. subtilis 168, first compound 0.095 µg/mL, partner 0.625 µg/mL	0.789
B. subtilis 168, first compound 0.095 µg/mL, partner 1.25 µg/mL	0.775
B. subtilis 168, first compound 0.095 µg/mL, partner 2.5 µg/mL	0.56
B. subtilis 168, first compound 0.19 µg/mL, partner 0.625 µg/mL	0.44
B. subtilis 168, first compound 0.19 µg/mL, partner 1.25 µg/mL	0.404
B. subtilis 168, first compound 0.19 µg/mL, partner 2.5 µg/mL	0.256
S. aureus DSM 20231, first compound 0.012 µg/mL, partner 0.625 µg/mL	0.632
S. aureus DSM 20231, first compound 0.012 µg/mL, partner 1.25 µg/mL	0.671
S. aureus DSM 20231, first compound 0.012 µg/mL, partner 2.5 µg/mL	0.54
S. aureus DSM 20231, first compound 0.024 µg/mL, partner 0.625 µg/mL	0.346
S. aureus DSM 20231, first compound 0.024 µg/mL, partner 1.25 µg/mL	0.358
S. aureus DSM 20231, first compound 0.048 µg/mL, partner 0.625 µg/mL	0.135
S. aureus DSM 20231, first compound 0.048 µg/mL, partner 1.25 µg/mL	0.1
S. aureus DSM 20231, first compound 0.048 µg/mL, partner 2.5 µg/mL	0.0901
S. pneumoniae D39V, first compound 0.012 µg/mL, partner 0.25 µg/mL	0.829
S. pneumoniae D39V, first compound 0.012 µg/mL, partner 0.5 µg/mL	0.797
S. pneumoniae D39V, first compound 0.012 µg/mL, partner 1 µg/mL	0.714
S. pneumoniae D39V, first compound 0.024 µg/mL, partner 0.25 µg/mL	0.512
S. pneumoniae D39V, first compound 0.024 µg/mL, partner 0.5 µg/mL	0.458
S. pneumoniae D39V, first compound 0.024 µg/mL, partner 1 µg/mL	0.451
S. pneumoniae D39V, first compound 0.048 µg/mL, partner 0.25 µg/mL	0.175
S. pneumoniae D39V, first compound 0.048 µg/mL, partner 0.5 µg/mL	0.221
S. pneumoniae D39V, first compound 0.048 µg/mL, partner 1 µg/mL	0.179
S. pneumoniae D39V, first compound 0.375 µg/mL, partner 0.25 µg/mL	0.0266
S. pneumoniae D39V, first compound 0.375 µg/mL, partner 0.5 µg/mL	0.016
S. pneumoniae D39V, first compound 0.375 µg/mL, partner 1 µg/mL	0.0403
S. pneumoniae D39V, first compound 0.75 µg/mL, partner 0.25 µg/mL	0.031
S. pneumoniae D39V, first compound 0.75 µg/mL, partner 0.5 µg/mL	0.0286
S. pneumoniae D39V, first compound 0.75 µg/mL, partner 1 µg/mL	0.0402
S. pneumoniae D39V, first compound 1.5 µg/mL, partner 0.25 µg/mL	0.0296
S. pneumoniae D39V, first compound 1.5 µg/mL, partner 0.5 µg/mL	0.0259
S. pneumoniae D39V, first compound 1.5 µg/mL, partner 1 µg/mL	0.052

S. aureus DSM 20231, first compound 0.006 µg/mL, one replicate
Details	fitness
partner 0.625 µg/mL	0.719
partner 1.25 µg/mL	0.685
partner 2.5 µg/mL	0.64
